Data: patent US9527857B2, “HSPC-sparing treatments for RB-positive abnormal cellular proliferation” (G1 Therapeutics, Inc., priority 2013, dated 2016)
Blank lines part the entries; values can stand above or below the molecule they belong to.

Tests used:
[1] = test system: MCF7 (breast adenocarcinoma, Rb-positive); assay: Cellular proliferation assay (CellTiter-Glo), MCF7; type: cell-based
Description: The MCF7 cells were seeded in Costar (Tewksbury, Mass.) 3903 96 well tissue culture treated white walled/clear bottom plates. A nine point dose response dilution series from 10 uM to 1 nM was performed and cell viability was determined after six days of compound treatment as indicated using the CellTiter-Glo® luminescent cell viability assay (CTG; Promega, Madison, Wis., United States of America) following the manufacturer's recommendations. Plates were read on a BioTek (Winooski, Vt.) Syngergy2 multi-mode plate reader. The Relative Light Units (RLU) were plotted as a result of variable molar concentration and data was analyzed using Graphpad (LaJolla, Calif.) Prism 5 statistical software to determine the EC50 for each compound.
(§1) Cellular proliferation assays were conducted using the following cancer cell lines: MCF7 (breast adenocarcinoma—Rb-positive), ZR-75-1 (breast ductal carcinoma—Rb-positive), H69 (human small cell lung cancer—Rb-negative) cells, or A2058 (human metastatic melanoma cells—Rb-negative). These cells were seeded in Costar (Tewksbury, Mass.) […] 96 well tissue culture treated white walled/clear bottom plates. Cells were treated with the compounds of Table 1 as nine point dose response dilution series from 10 uM to 1 nM. Cells were exposed to compounds and then cell viability was determined after either four (H69) or six (MCF7, ZR75-1, A2058) days as indicated using the CellTiter-Glo® luminescent cell viability assay (CTG; Promega, Madison, Wis., United States of America) following the manufacturer's recommendations. Plates were read on BioTek (Winooski, Vt.) Syngergy2 multi-mode plate reader. The Relative Light Units (RLU) were plotted as a result of variable molar concentration and data was analyzed using Graphpad (LaJolla, Calif.) Prism 5 statistical software to determine the EC50 for each compound.

CDK4/CyclinD1 = CDK4/CyclinD1 (Homo sapiens (Human), UniProt P11802); assay: CDK4/cyclinD1 kinase assay (Nanosyn, microfluidic Caliper platform); type: biochemical; settings: ATP at Km (200 uM); read-out: CDK4/CycD1 IC50
Description: (§2) Selected compounds disclosed herein were tested in CDK4/cyclinD1, CDK2/CycA and CDK2/cyclinE kinase assays by Nanosyn (Santa Clara, Calif.) to determine their inhibitory effect on these CDKs. The assays were performed using microfluidic kinase detection technology (Caliper Assay Platform). The compounds were tested in 12-point dose-response format in singlicate at Km for ATP. Phosphoacceptor substrate peptide concentration used was 1 μM for all assays and Staurosporine was used as the reference compound for all assays. Specifics of each assay are as described below:
CDK4/CyclinD1: Enzyme concentration: 1 nM; ATP concentration: 200 μM; Incubation time: 10 hr.

[2] = test system: ZR-75-1 (breast ductal carcinoma, Rb-positive); assay: Cellular proliferation assay (CellTiter-Glo), ZR-75-1; type: cell-based
Description: as §1

CDK2/CyclinE = CDK2/CyclinE (Homo sapiens (Human), UniProt P24941); assay: CDK2/cyclinE kinase assay (Nanosyn, microfluidic Caliper platform); type: biochemical
Description: as §2, with “assays.” for “assays. Specifics of each assay are as described below:”

CDK2/CyclinA = CDK2/CyclinA (Homo sapiens (Human), UniProt P24941); assay: CDK2/CycA kinase assay (Nanosyn, microfluidic Caliper platform); type: biochemical
Description: as §2
CDK2/CyclinA: Enzyme concentration: 0.2 nM; ATP concentration: 50 μM; Incubation time: 3 hr.

HSPCs (LKS+) = assay: Bone marrow HSPC proliferation by EdU incorporation and flow cytometry; type: in vivo; settings: 150 mg/kg oral gavage, mice
Description: . JCNI 2012; 104(6):476-487 (FIG. 2A). […].
Mice were then sacrificed at the indicated times (0, 12, 24, 36, or 48 hours following compound administration), and bone marrow was harvested (n=3 mice per time point), as previously described (Johnson et al. J. Clin. Invest. (2010) 120(7), 2528-2536). Four hours before the bone marrow was harvested, mice were treated with 100 μg of EdU by intraperitoneal injection (Invitrogen). Bone marrow mononuclear cells were harvested and immunophenotyped using previously described methods and percent EdU positive cells were then determined (Johnson et al. J. Clin. Invest. (2010) 120(7), 2528-2536). In brief, HSPCs were identified by expression of lineage markers (Lin−), Sca1 (S+), and c-Kit (K+).
Four hours before animals were sacrificed and the bone marrow was harvested, mice were treated with 100 μg of EdU by intraperitoneal injection. Three mice per group were sacrificed at 12 hours and the remaining three animals per group were sacrificed at 24 hours. Results are shown in FIG. 5A as the ratio of EdU positive cells for treated animals at 12 or 24 hour time points compared to control.
Further experiments were completed with Compound T examining dose response and longer periods of compound treatment. […] […].
Both compounds were administered at 150 mg/kg by oral gavage. One hour prior to harvesting bone marrow, EdU was IP injected to label cycling cells. Bone marrow was harvested at 12, 24, 36, and 48 hours after compound treatment and the percentage of EdU positive HSPC cells was determined at each time point.

[3] = Mouse pharmacokinetics (oral gavage / intravenous); type: in vivo, mice; settings: plasma, 30 mg/kg, read-out: F (oral bioavailability)
Description: Blood samples were taken at 0, 0.25, 0.5, 1.0, 2.0, 4.0, and 8.0 hours post dosing and the plasma concentrations were determined by HPLC.

[4] = test system: MMTV-c-neu (Rb-positive) tumors; assay: MMTV-c-neu HER2-driven (Rb-positive) luminal breast cancer mouse model; type: in vivo, mice
Text: A HER2-driven model (Rb-positive) of breast cancer (Muller W J, Sinn E, Pattengale P K, Wallace R, Leder P. Single-step induction of mammary adenocarcinoma in transgenic mice bearing the activated c-neu oncogene. Cell 1988; 54: 105-15), that expresses c-neu (the mouse ortholog of human HER2) driven by the MMTV promoter was used in the following example. This model was chosen because previous studies in murine (Yu Q, Geng Y, Sicinski P. Specific protection against breast cancers by cyclin D1 ablation. Nature 2001; 411: 1017-21; Landis M W, Pawlyk B S, Li T, Sicinski P, Hinds P W. Cyclin D1-dependent kinase activity in murine development and mammary tumorigenesis. Cancer Cell 2006; 9: 13-22; Reddy H K, Mettus R V, Rane S G, Grana X, Litvin J, Reddy E P. Cyclin-dependent kinase 4 expression is essential for neu-induced breast tumorigenesis. Cancer Res 2005; 65: 10174-8; Yu Q, Sicinska E, Geng Y, Ahnstrom M, Zagozdzon A, Kong Y, et al. Requirement for CDK4 kinase function in breast cancer. Cancer Cell 2006; 9: 23-32.) and human HER2-positive breast cancer (An H X, Beckmann M W, Reifenberger G, Bender H G, Niederacher D. Gene amplification and overexpression of CDK4 in sporadic breast carcinomas is associated with high tumor cell proliferation. Am J Pathol 1999; 154: 113-8; Samady L, Dennis J, Budhram-Mahadeo V, Latchman DS. Activation of CDK4 gene expression in human breast cancer cells by the Brn-3b POU family transcription factor. Cancer Biol Ther 2004; 3: 317-23; Takano Y, Takenaka H, Kato Y, Masuda M, Mikami T, Saegusa M, et al. Cyclin D1 overexpression in invasive breast cancers: correlation with cyclin-dependent kinase 4 and oestrogen receptor overexpression, and lack of correlation with mitotic activity.
MMTV-neu mice were generated and observed post-lactation, with tumors observed with a median latency of approximately 25 weeks. Mice were enrolled in therapy studies when tumors reached a standard size (50-60 mm3) that permitted easy serial assessment. […] Tumor volumes were calculated by the formula, Volume=[(width)^2×length]/2. Tumor-bearing mice were euthanized at the indicated times due to predefined morbidity, tumor ulceration, or a tumor size of more than 1.5 cm in diameter.
Tumors were serially assessed weekly using caliper measurements. Therapeutic intervention began once tumors reached 40-64 mm^3. Tumor volume was calculated using the formula […]. All three compounds were administered orally via medicated diets (100 mg/kg/d). Medicated diets were administered for 28 consecutive days and then stopped. RECIST criteria were used to assess objective response rates.

Chain of CDK4/CyclinD1 (P11802 whole entry, species assumed): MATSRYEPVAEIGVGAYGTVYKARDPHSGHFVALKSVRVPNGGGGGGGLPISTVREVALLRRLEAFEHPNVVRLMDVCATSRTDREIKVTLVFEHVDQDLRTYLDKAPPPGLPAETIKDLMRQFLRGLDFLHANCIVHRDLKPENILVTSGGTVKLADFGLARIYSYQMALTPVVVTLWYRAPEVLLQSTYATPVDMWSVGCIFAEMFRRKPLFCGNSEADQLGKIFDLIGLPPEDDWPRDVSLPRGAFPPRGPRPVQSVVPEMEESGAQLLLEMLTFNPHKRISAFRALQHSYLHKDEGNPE
Chain of CDK4/CyclinD1 (P24385 whole entry partner, species assumed): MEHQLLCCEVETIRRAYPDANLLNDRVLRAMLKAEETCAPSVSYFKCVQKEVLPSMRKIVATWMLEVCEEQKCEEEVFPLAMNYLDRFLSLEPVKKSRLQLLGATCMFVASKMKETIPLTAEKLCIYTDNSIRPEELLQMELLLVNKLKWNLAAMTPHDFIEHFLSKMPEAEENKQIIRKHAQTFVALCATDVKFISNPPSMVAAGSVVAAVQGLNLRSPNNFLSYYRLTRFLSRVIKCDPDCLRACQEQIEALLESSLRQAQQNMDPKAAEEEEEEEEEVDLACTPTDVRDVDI

SMILES: CN1CCN(C(=O)c2ccc(Nc3ncc4cc5n(c4n3)C3(CCCC3)CNC5=O)nc2)CC1 [BBB]
EC50 ([1]; Homo sapiens, MCF7, 144 h, six days): 123 nM

SMILES: CC1(C)CN(c2ccc(Nc3ncc4cc5n(c4n3)C3(CCCCC3)CNC5=O)nc2)CCN1CC1CC1 [H]
inhibition of cellular proliferation of MCF-7 cells (FIGS. 21-24) [1]: significant inhibition of cellular proliferation | inhibition of cellular proliferation of ZR75-1 cells (FIGS. 25-28) [2]: significant inhibition of cellular proliferation

SMILES: C[C@@H]1CN(c2ccc(Nc3ncc4cc5n(c4n3)C3(CCCCC3)CNC5=O)nc2)C[C@H](C)N1C[C@@H](C)O [MM]
inhibition of cellular proliferation of MCF-7 cells (FIGS. 21-24) [1]: significant inhibition of cellular proliferation | inhibition of cellular proliferation of ZR75-1 cells (FIGS. 25-28) [2]: significant inhibition of cellular proliferation

SMILES: CC1CN(c2ccc(Nc3ncc4cc5n(c4n3)C3(CCCCC3)CNC5=O)nc2)C[C@@H](C)N1CC1CC1 (some centres unmarked) [OO]
inhibition of cellular proliferation of MCF-7 cells (FIGS. 21-24) [1]: significant inhibition of cellular proliferation | inhibition of cellular proliferation of ZR75-1 cells (FIGS. 25-28) [2]: significant inhibition of cellular proliferation

SMILES: CCC(C)[C@@H]1CNC(=O)c2cc3cnc(Nc4ccc(N5CCNCC5)cn4)nc3n21 (some centres unmarked) [VVV]
Fold Selectivity (CDK2/CycE/CDK4) (CDK2/CyclinE): 589

Further lines, with some results ahead:

IC50 (CDK4/CyclinD1): 0.2 nM
SMILES: CC(C)(O)CN1CCN(c2ccc(Nc3ncc4cc5n(c4n3)C3(CCCC3)CNC5=O)nc2)CC1 [EEE]

Fold Selectivity (CDK2/CycE/CDK4) (CDK2/CyclinE): 21263 | IC50 (CDK2/CyclinE; ATP at Km (100 uM), read-out: CDK2/CycE IC50): 16500 nM | IC50 (CDK4/CyclinD1): 0.8 nM | Fold Selectivity (CDK2/CycA/CDK4) (CDK2/CyclinA): 3402 | IC50 (CDK2/CyclinA; ATP at Km (50 uM)): 2640 nM
SMILES: CC1CN(c2ccc(Nc3ncc4cc5n(c4n3)C3(CCCC3)CNC5=O)nc2)CCN1CCC(C)(C)C (centres unmarked) [PPP]

bioavailability [3]: 2%
SMILES: O=C1NCC2(CCCCC2)n2c1cc1cnc(Nc3ccc(N4CCNCC4)cn3)nc12 [Q]
EdU incorporation into HSPCs at 12 and 24 hours (FIG. 5A) (HSPCs (LKS+)): some reduction at 12 hours and started to return to baseline at 24 hours | inhibition of cellular proliferation of MCF-7 cells (FIGS. 21-24) [1]: significant inhibition of cellular proliferation | inhibition of cellular proliferation of ZR75-1 cells (FIGS. 25-28) [2]: significant inhibition of cellular proliferation

bioavailability [3]: 67%
SMILES: O=C1NCC2(CCCCC2)n2c1cc1cnc(Nc3ccc(N4CCC(N5CCOCC5)CC4)cn3)nc12 [U]
tumor volume during a 28 day course of therapy ([4]; 100 mg/kg/d in chow): marked decrease in tumor volume | objective response rate ([4]; 100 mg/kg/day medicated diet, 28 days, RECIST criteria): 100% | inhibition of cellular proliferation of MCF-7 cells (FIGS. 21-24) [1]: significant inhibition of cellular proliferation | inhibition of cellular proliferation of ZR75-1 cells (FIGS. 25-28) [2]: significant inhibition of cellular proliferation
